Data on 15 compounds can be found in patent US20220235064A1 (WELLMARKER BIO CO., LTD., priority 2019, published 2022).

Test [1] concerns cancer cell line HT29, in which mutated RON (Δ160) is expressed. Description: Cell-killing efficacy in RON-mutated cancer cell line HT29 (trypan blue). It is filed as cell-based. As to conditions: Homo sapiens, HT-29, 48 hours, trypan blue, n=2, read-out: Cell death (%) Cancer cell line HT29. Here is the method: Experimental Example 4: Measurement of Cell-Killing Efficacy of Example Compounds in RON-Mutated Cancer Cell Lines
Each of two colorectal cancer cell lines, that is, the cancer cell line HT29 (30038, KCLB, RPMI+10% FBS), in which mutated RON (Δ160) is expressed, and the cancer cell line SW620 (CCL-227, ATCC, RPMI+10% FBS), in which mutated RON (Δ155) is expressed, was dispensed into each 60 mm^2 dish at 1×10^5 cells. After 24 hours, the dish was treated with each of the example compounds at a concentration of 1 μM or 5 μM while performing medium exchange, and then reaction was allowed to proceed for 48 hours. After 48 hours, centrifugation was performed for 4 minutes at 1,500 rpm to collect cells and cell fluid. Thereafter, living cells and dead cells were quantified (n=2) using a trypan blue solution (15250-061, Gibco), and statistical analysis was performed using Excel-T-test. Here, as a negative control, only a solvent (0.10% DMSO) was used; and as a positive control, N-(4-(2-amino-3-chloropyridin-4-yloxy)-3-fluorophenyl)-4-ethoxy-1-(4-fluorophenyl)-2-oxo-1,2-dihydropyridine-3-carboxamide, which is the compound of Example 1 in WO 2008/058229 A1, was used.

The target in test [2] is T1, RON tyrosine kinase (Homo sapiens, UniProt Q04912).
T1 construct: purchased Carna Bioscience
T1 sequence (Q04912 25-1400): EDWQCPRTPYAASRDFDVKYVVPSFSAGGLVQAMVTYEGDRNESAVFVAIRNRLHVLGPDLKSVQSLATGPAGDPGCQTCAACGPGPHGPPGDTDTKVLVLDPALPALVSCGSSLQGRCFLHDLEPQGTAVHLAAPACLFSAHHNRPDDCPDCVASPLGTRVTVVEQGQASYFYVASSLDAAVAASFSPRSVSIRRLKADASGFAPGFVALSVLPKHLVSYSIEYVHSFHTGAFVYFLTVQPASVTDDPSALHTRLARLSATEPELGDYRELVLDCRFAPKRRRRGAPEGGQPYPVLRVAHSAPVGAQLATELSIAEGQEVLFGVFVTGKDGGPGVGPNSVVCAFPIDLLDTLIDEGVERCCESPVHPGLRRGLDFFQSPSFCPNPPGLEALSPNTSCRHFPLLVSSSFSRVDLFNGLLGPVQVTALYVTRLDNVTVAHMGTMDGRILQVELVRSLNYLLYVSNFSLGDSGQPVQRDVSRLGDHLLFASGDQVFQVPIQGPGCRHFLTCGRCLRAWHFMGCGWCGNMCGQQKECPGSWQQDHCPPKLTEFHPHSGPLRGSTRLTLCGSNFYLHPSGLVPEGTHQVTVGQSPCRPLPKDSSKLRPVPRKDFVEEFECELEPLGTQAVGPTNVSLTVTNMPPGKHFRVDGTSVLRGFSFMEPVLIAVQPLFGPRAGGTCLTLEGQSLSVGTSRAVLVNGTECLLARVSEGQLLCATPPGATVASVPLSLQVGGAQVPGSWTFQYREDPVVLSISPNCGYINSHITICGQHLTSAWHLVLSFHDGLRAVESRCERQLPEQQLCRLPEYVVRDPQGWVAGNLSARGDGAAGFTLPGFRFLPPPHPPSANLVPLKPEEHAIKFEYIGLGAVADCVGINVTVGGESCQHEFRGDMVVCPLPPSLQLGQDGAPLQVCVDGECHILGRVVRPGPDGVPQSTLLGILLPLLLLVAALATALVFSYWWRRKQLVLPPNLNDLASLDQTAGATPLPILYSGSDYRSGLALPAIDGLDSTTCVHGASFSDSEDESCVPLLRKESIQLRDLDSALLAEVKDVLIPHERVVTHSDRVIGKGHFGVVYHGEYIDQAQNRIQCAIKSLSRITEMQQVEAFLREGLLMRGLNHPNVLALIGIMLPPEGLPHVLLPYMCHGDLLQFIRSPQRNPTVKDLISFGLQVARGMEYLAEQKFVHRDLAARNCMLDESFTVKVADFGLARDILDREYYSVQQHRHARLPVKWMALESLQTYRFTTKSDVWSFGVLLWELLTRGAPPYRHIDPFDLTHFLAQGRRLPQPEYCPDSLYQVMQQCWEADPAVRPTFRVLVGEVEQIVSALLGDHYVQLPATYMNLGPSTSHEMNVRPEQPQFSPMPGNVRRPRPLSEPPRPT
Description: Enzyme inhibitory activity against RON tyrosine kinase (TR-FRET). It is filed as biochemical. Particulars: RON (Carna Bioscience). In a few lines: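 Recombinant RON was preincubated with compound for 15 min at RT in 50 mM HEPES pH 7.5, 10 mM MgCl2, 1 mM EGTA, 2 mM DTT, 0.01% Tween-20. Enzyme (0.4 nM), ATP (60 μM) and tyrosine peptide (400 nM) were prepared at 2×, 4× and 4× final. After 60 min at RT, EDTA/Eu-anti-phosphotyrosine stop; IC50 from 665 nm TR-FRET emission.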
In general terms: TR-FRET usually uses a lanthanide donor and a delayed reading to cut background.

In test [3] the test system is cancer cell line KM12C, in which RON is activated. Description: Cell-killing efficacy in RON-activated cancer cell line (trypan blue). Particulars: Homo sapiens, 48 hours, trypan blue, n=2, read-out: Cell death (%) Cancer cell line KM12C. It is filed as cell-based. In a few lines:
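KM12C cells seeded 1×10^5 per 60 mm^2 dish in MEM + 10% FBS, then exposed 24 h later to compound at 1 μM or 5 μM for 48 h.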

For test [4] the test system is unchanged. Description: Cell growth inhibitory ability in RON-activated cancer cell line (MTS). It is filed as cell-based. As to conditions: Homo sapiens, 48 hours, absorbance 490 nm. The gist of the method:
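KM12C cells (RON-activated, MEM with FBS) exposed to compound […] for 48 h. MTS added 24 h after treatment ended, incubated 4 h at 37° C, absorbance read at 490 nm. IC50 derived from absorbance.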

Counter-ions that a name gives are not always drawn.

A word on the IC50: it is the concentration needed to halve the response being measured.

Consider `COCCNCc1ccc(-c2cc3nccc(Oc4ccc(NC(=O)c5c6c(cn(-c7ccc(F)cc7)c5=O)CCO6)cc4F)c3s2)nc1` [Example 1, N-(3-Fluoro-4-((2-(5-(((2-methoxyethyl)amino)methyl)pyridin-2-yl)thieno[3,2-b]pyridin-7-yl)oxy)phenyl)-5-(4-fluorophenyl)-6-oxo-2,3,5,6-tetrahydrofuro[3,2-c]pyridine-7-carboxamide hydrochloride], for which the values for the cytotoxicity at 1 µM in test [1] and in test [3] were 9.35% and 10.3%, respectively. The cytotoxicity at 5 µM in test [1] was 38.2%; in test [3], 68.6%. Further, the figures for the IC50 in test [2] and in test [4] were 0.82 nM and 2 nM, respectively.
As to `COCCNCc1ccc(-c2cc3nccc(Oc4ccc(NC(=O)c5c6c(cn(-c7ccccc7)c5=O)CCO6)cc4F)c3s2)nc1` [Example 2, N-(3-Fluoro-4-((2-(5-(((2-methoxyethyl)amino)methyl)pyridin-2-yl)thieno[3,2-b]pyridin-7-yl)oxy)phenyl)-6-oxo-5-phenyl-2,3,5,6-tetrahydrofuro[3,2-c]pyridine-7-carboxamide hydrochloride], the cytotoxicity at 1 µM in test [1] is 15.4%; in test [3], 38.4%. In addition, the cytotoxicity at 5 µM in test [1] is 80.5%; in test [3] it was 93.4%. The results for the IC50 in test [2] and in test [4] were 1.25 nM and 67 nM, respectively.
On to `CNC(=O)c1cc2c(Oc3ccc(NC(=O)c4c5c(cn(-c6ccc(F)cc6)c4=O)CCO5)cc3F)ccnc2cc1OC` [Example 48, N-(3-Fluoro-4-((7-methoxy-6-(methylcarbamoyl)quinolin-4-yl)oxy)phenyl)-5-(4-fluorophenyl)-6-oxo-2,3,5,6-tetrahydrofuro[3,2-c]pyridine-7-carboxamide], for which the IC50 in test [2] was 0.85 nM; in test [4], 1 nM. In test [3], the cytotoxicity at 1 µM came to 18.9%. For the same compound, the cytotoxicity at 5 µM in test [3] turned out to be 15.5%.
`COc1cc2nccc(Oc3ccc(NC(=O)c4c5c(cn(-c6ccc(F)cc6)c4=O)CCO5)cc3F)c2cc1C(=O)NCCN1CCOCC1` [Example 50, N-(3-Fluoro-4-((7-methoxy-6-((2-morpholinoethyl)carbamoyl)quinolin-4-yl)oxy)phenyl)-5-(4-fluorophenyl)-6-oxo-2,3,5,6-tetrahydrofuro[3,2-c]pyridine-7-carboxamide] showed an IC50 in test [2] of 1.18 nM. For the same compound, in test [3], the cytotoxicity at 1 µM is 19.4% and the cytotoxicity at 5 µM is 32.3%. This compound returned an IC50 in test [4] of 2 nM.
With `Cn1ncc2cc(Oc3ccc(NC(=O)c4c5c(cn(-c6ccc(F)cc6)c4=O)CCO5)cc3F)c(-c3cn[nH]c3)cc21` [Example 64], in test [1], the cytotoxicity at 1 µM was 16% and the cytotoxicity at 5 µM worked out at 18.8%. This compound also came in with an IC50 in test [2] of 14.2 nM. Moreover, in test [3], the cytotoxicity at 1 µM amounted to 13.1% and the cytotoxicity at 5 µM amounted to 97.1%.
The compound `COc1cc2c(Oc3ccc(NC(=O)c4c5c(cn(-c6ccc(F)cc6)c4=O)CCO5)cc3F)ccnc2cc1OCCN1CCOCC1` [Example 78, N-(3-Fluoro-4-((6-methoxy-7-(2-morpholinoethoxy)quinolin-4-yl)oxy)phenyl)-5-(4-fluorophenyl)-6-oxo-2,3,5,6-tetrahydrofuro[3,2-c]pyridine-7-carboxamide] gave an IC50 in test [2] of 2.63 nM. Further, in test [3], the cytotoxicity at 1 µM came to 23.5% and the cytotoxicity at 5 µM stood at 23.9%. This compound also returned an IC50 in test [4] of 2 nM.
In the same order, the values of `COc1cc2c(Oc3ccc(NC(=O)c4c5c(cn(-c6ccc(F)cc6)c4=O)CCO5)cc3F)ccnc2cc1OCCCN1CCN(C)CC1` [Example 80, N-(3-Fluoro-4-((6-methoxy-7-(3-(4-methylpiperazin-1-yl)propoxy)quinolin-4-yl)oxy)phenyl)-5-(4-fluorophenyl)-6-oxo-2,3,5,6-tetrahydrofuro[3,2-c]pyridine-7-carboxamide] are 1.3 nM, 19.5%, 19.9% and 3 nM.
With `CN1CCN(CCCOc2ccc3c(Oc4ccc(NC(=O)c5c6c(cn(-c7ccc(F)cc7)c5=O)CCO6)cc4F)ccnc3c2)CC1` [Example 160, N-(3-Fluoro-4-((7-(3-(4-methylpiperazin-1-yl)propoxy)quinolin-4-yl)oxy)phenyl)-5-(4-fluorophenyl)-6-oxo-2,3,5,6-tetrahydrofuro[3,2-c]pyridine-7-carboxamide], in test [2], it took 1.01 nM to reach half-maximal inhibition (IC50). For the same compound, in test [3], the cytotoxicity at 1 µM came to 12.7% and the cytotoxicity at 5 µM was determined as 19.4%. This compound also came in with an IC50 in test [4] of 6 nM.
For the compound `O=C(Nc1ccc(Oc2ccnc3cc(OCCCN4CCCCC4)ccc23)c(F)c1)c1c2c(cn(-c3ccc(F)cc3)c1=O)CCO2` [Example 161], the IC50 stood at 0.61 nM in test [2] and 7 nM in test [4]. Moreover, the cytotoxicity at 1 µM in test [3] was 23.4%. Also, the cytotoxicity at 5 µM in test [3] came to 22%.
The compound `CNC(=O)c1cc2c(Oc3ccc(NC(=O)c4c5c(cn(-c6ccc(F)cc6)c4=O)CCO5)cc3F)ccnc2cc1OCCCN1CCOCC1` [Example 164, N-(3-Fluoro-4-((6-(methylcarbamoyl)-7-(3-morpholinopropoxy)quinolin-4-yl)oxy)phenyl)-5-(4-fluorophenyl)-6-oxo-2,3,5,6-tetrahydrofuro[3,2-c]pyridine-7-carboxamide] gave an IC50 in test [2] of 1.46 nM. Further, in test [3], the cytotoxicity at 1 µM amounted to 19.4% and the cytotoxicity at 5 µM turned out to be 29.7%. The same compound showed an IC50 in test [4] of 1 nM.
For `CNC(=O)c1cc2nccc(Oc3ccc(NC(=O)c4c5c(cn(-c6ccc(F)cc6)c4=O)CCO5)cc3F)c2cc1OC` [Example 165, N-(3-Fluoro-4-((6-methoxy-7-(methylcarbamoyl)quinolin-4-yl)oxy)phenyl)-5-(4-fluorophenyl)-6-oxo-2,3,5,6-tetrahydrofuro[3,2-c]pyridine-7-carboxamide], the IC50 in test [2] was 0.45 nM. Moreover, in test [3], the cytotoxicity at 1 µM amounted to 7.3% and the cytotoxicity at 5 µM turned out to be 32.9%. Moreover, the IC50 in test [4] worked out at 3 nM.
Consider `CNC(=O)c1cc2nccc(Oc3ccc(NC(=O)c4c5c(cn(-c6ccc(F)cc6)c4=O)CCO5)cc3F)c2cc1OCCN1CCOCC1` [Example 166, N-(3-Fluoro-4-((7-(methylcarbamoyl)-6-(2-morpholinoethoxy)quinolin-4-yl)oxy)phenyl)-5-(4-fluorophenyl)-6-oxo-2,3,5,6-tetrahydrofuro[3,2-c]pyridine-7-carboxamide], for which, in test [2], the IC50 was 1.9 nM. In test [3], the cytotoxicity at 1 µM worked out at 11.4% and the cytotoxicity at 5 µM turned out to be 14.9%. In test [4], the IC50 was 16 nM.
In test [2], `O=C(Nc1ccc(Oc2ccnc3cc(OCCCN4CCOCC4)c(Cl)cc23)c(F)c1)c1c2c(cn(-c3ccc(F)cc3)c1=O)CCO2` [Example 172, N-(4-((6-Chloro-7-(3-morpholinopropoxy)quinolin-4-yl)oxy)-3-fluorophenyl)-5-(4-fluorophenyl)-6-oxo-2,3,5,6-tetrahydrofuro[3,2-c]pyridine-7-carboxamide] returned an IC50 of 7.44 nM. In test [3], the cytotoxicity at 1 µM was determined as 3.19% and the cytotoxicity at 5 µM came out at 11.6%. In test [4], this compound returned an IC50 of 15 nM.
For `COc1cc2nccc(Oc3ccc(NC(=O)c4c5c(cn(-c6ccc(F)cc6)c4=O)CCO5)cc3F)c2cc1OCCCN1CCOCC1` [Example 176, N-(3-Fluoro-4-((7-methoxy-6-(3-morpholinopropoxy)quinolin-4-yl)oxy)phenyl)-5-(4-fluorophenyl)-6-oxo-2,3,5,6-tetrahydrofuro[3,2-c]pyridine-7-carboxamide] the same measures were 0.1 nM, 4.1%, 20.2% and 2 nM.
Compound `COc1cc2nccc(Oc3ccc(NC(=O)c4c5c(cn(-c6ccc(F)cc6)c4=O)CCO5)cc3F)c2cc1NC(=O)CCN1CCOCC1` [Example 180, N-(3-Fluoro-4-((7-methoxy-6-(3-morpholinopropanamido)quinolin-4-yl)oxy)phenyl)-5-(4-fluorophenyl)-6-oxo-2,3,5,6-tetrahydrofuro[3,2-c]pyridine-7-carboxamide] returned an IC50 in test [2] of 6.83 nM. Also, in test [3], the cytotoxicity at 1 µM stood at 18.1% and the cytotoxicity at 5 µM came out at 20.6%. In addition, in test [4], the IC50 stood at 3 nM.
